Consider 22 compounds from patent US11731944B2, “SARS-CoV-2 inhibitors for treating coronavirus infections” (priority 2021, dated 2023).

In general, IC50 refers to the concentration at which inhibition is half-maximal.

The target in the first test is SARS-CoV-2 MPRO (Severe acute respiratory syndrome coronavirus 2 (2019-nCoV) (SARS-CoV-2), UniProt P0DTD1). Put plainly: SARS-CoV-2 Mpro enzymatic assay (FRET substrate cleavage). The format is biochemical. To be noted: C-His6-tagged SARS-CoV-2 MPRO 25 nM, 30 min pre-incubation at RT, 60 min at 30° C., 10 doses from 25 μM; read-out: M pro IC50.
In the case of `CC1(C)C[C@H](NC(=O)[C@@](C)(c2cncnc2)N(C(=O)[C@H](F)Cl)c2ccc(OC(F)(F)F)cc2)CCO1` (single isomer, unassigned) [Example 77a], the 50% inhibitory concentration (IC50) is under 100 nM.

In the case of `C[C@@](C(=O)NC1CCC(F)(F)CC1)(c1cncnc1)N(C(=O)[C@H](F)Cl)c1ccc(-c2ccno2)cc1` [Example 2b], the IC50 was in the range of 1000 to 10000 nM.

For `C[C@@](C(=O)NC1CCC(F)(F)CC1)(c1cncc(F)c1)N(C(=O)[C@H](F)Cl)c1ccc(-c2nccs2)cc1` [Example 102b], the IC50 was 100 to 1000 nM.

For `C[C@](C(=O)NC1CCOCC1)(c1cncc(F)c1)N(C(=O)[C@H](F)Cl)c1ccc(OC(F)(F)Cl)cc1` [Example 98a], the IC50 was under 100 nM.

Take `C[C@@](C(=O)NC1CCOCC1)(c1cncnc1)N(C(=O)C(Cl)Cl)c1ccc(OC(F)(F)Cl)cc1` [Example 115b]: the half-maximal inhibitory concentration (IC50) is 1000 to 10000 nM.

Turning to `C[C@](C(=O)NC1CCOC1)(c1cncnc1)N(C(=O)[C@H](F)Cl)c1ccc(OC(F)(F)F)cc1` (single isomer, unassigned) [Example 6b], the IC50 was under 100 nM.

Regarding `C[C@@](C(=O)NC1CC(F)(F)C1)(c1cncnc1)N(C(=O)[C@H](F)Cl)c1ccc(OC(F)(F)F)cc1` [Example 18b], the 50% inhibitory concentration (IC50) fell in the range of 1000 to 10000 nM.

Consider `C[C@@](C(=O)NC1CCOCC1)(c1cccnc1)N(C(=O)[C@H](F)Cl)c1ccc(OC(F)(F)Cl)cc1` [Example 111b], for which the IC50 was over 10000 nM.

In the case of `C[C@](C(=O)NC1CCC(F)(F)CC1)(c1cncc(F)c1)N(C(=O)[C@H](F)Cl)c1ccc(SC(F)(F)F)cc1` [Example 95a], the IC50 is under 100 nM.

Regarding `C[C@@](C(=O)NC1CCOCC1)(c1cncnc1)N(C(=O)[C@H](F)Cl)c1ccc(SC(F)(F)F)cc1` [Example 34b], the concentration for half-maximal inhibition (IC50) was over 10000 nM.

On to `C[C@](C(=O)NC1CCOCC1)(c1cccnc1)N(C(=O)[C@H](F)Cl)c1ccc(SC(F)(F)F)cc1` [Example 105a], for which the IC50 is under 100 nM.

`C[C@](C(=O)NC1CCC(F)(F)CC1)(c1cncnc1)N(C(=O)[C@H](F)Cl)c1ccc2c(c1)OC(F)(F)O2` [Example 113a]: the IC50 was under 100 nM.

As for `C[C@@](C(=O)NC1CCC(F)(F)CC1)(c1cncnc1)N(C(=O)[C@H](F)Cl)c1cccc(OC(F)(F)F)c1` [Example 112b], the half-maximal inhibitory concentration (IC50) was over 10000 nM.

Take `C[C@@](C(=O)Nc1ccc(Cl)cc1F)(c1cncnc1)N(C(=O)[C@H](F)Cl)c1ccc(OC(F)(F)F)cc1` [Example 110b]: the half-inhibitory concentration (IC50) fell in the range of 1000 to 10000 nM.

Turning to `C[C@@](C(=O)NC1CCC(F)(F)CC1)(c1cncnc1)N(C(=O)[C@H](F)Cl)c1ccc(OC(F)(F)F)cc1` [Example 4b], the IC50 fell in the range of 1000 to 10000 nM.

For the compound `C[C@](C(=O)NC1CCOCC1)(c1cncnc1)N(C(=O)C(Cl)Cl)c1ccc(OC(F)(F)Cl)cc1` [Example 115a], the IC50 is under 100 nM.

Staying with this test, now noted: M pro IC50, C-His6-tagged SARS-CoV-2 MPRO 25 nM, 30 min pre-incubation at RT, 60 min at 30° C., 10 doses from 25 μM.
Take `C[C@](C(=O)NC1CCC(F)(F)CC1)(c1cncnc1)N(C(=O)[C@H](F)Cl)c1ccc(SC(F)(F)F)cc1` (single isomer, unassigned) [Example 33a]: the half-maximal inhibitory concentration (IC50) is under 100 nM.

Compound `C[C@](C(=O)NC1CCOCC1)(c1cncnc1)N(C(=O)[C@H](F)Cl)c1ccc(OC(F)(F)C(F)(F)F)cc1` [Example 32a] registered a 50% inhibitory concentration (IC50) of under 100 nM.

`C[C@@](C(=O)NC1CCC2(CC1)COC2)(c1cncnc1)N(C(=O)[C@H](F)Cl)c1ccc(OC(F)(F)F)cc1` (single isomer, unassigned) [Example 107b] returned an IC50 of over 10000 nM.

As for `C[C@@](C(=O)N[C@@H]1CC[C@H](NC(=O)C(F)(F)F)C1)(c1cncc(F)c1)N(C(=O)[C@H](F)Cl)c1ccc(OC(F)(F)F)cc1` [Example 109b], the IC50 was in the range of 1000 to 10000 nM.

In turn, `C[C@](C(=O)NC1CCC(F)(F)CC1)(c1cncc(F)c1)N(C(=O)[C@H](F)Cl)c1ccc(OC(F)(F)F)cc1` [Example 11a] yielded a half-maximal inhibitory concentration (IC50) of under 100 nM.

Compound `CC1(C)COCC[C@@H]1NC(=O)[C@](C)(c1cncnc1)N(C(=O)[C@H](F)Cl)c1ccc(OC(F)(F)F)cc1` (single isomer, unassigned) [Example 76d] registered an IC50 of over 10000 nM.
